Consider two molecules from US20160051541A1 (CHANRX CORPORATION, priority 2013, published 2016).

Like-named read-outs stand apart in the source and are kept apart here.

The subject of data set [1] is atrial fibrillation. The conditions noted are these: canines, cited from earlier work.
The conditions of data set [2]: cited from earlier work.
A short description of data set [3]: Preliminary studies of daily use over 7, 10 and 14 days. The note with it: 75, 100, 125 and 150 mg a day over 7, 10 and 14 days. It counts as in vivo.
A short description of data set [4]: Example 1: plasma concentrations of vanoxerine and metabolites after a 300 mg dose in patients. It counts as in vivo, human. The note with it: for concentration at 1 h / concentration at 3 h / concentration at 4 h / concentration at 6 h / concentration at 8 h / concentration at 12 h / concentration at 24 h / concentration at 0.5 h: human, plasma, 300 mg; for concentration at 0.5 h: .5 h. On the procedure:
Each patient gave blood samples before administration of their dose, and then again at nine further time points, 30 minutes after administration, 1, 2, 3, 4, 6, 8, 12, and 24 hours post administration.

Data set [5] can be described thus: Example 2: daily doses of vanoxerine for 11 consecutive days in 12 subjects (PK, heart rate, blood pressure). It counts as in vivo, human. The conditions noted are these: for PK Data (Mean +/- SD) T1/2 / PK Data (Mean +/- SD) CMax: 11 consecutive days.
A short description of data set [6]: Example 4: vanoxerine daily for 7 days in four patients. The data set is classed as in vivo, human. The note with it: 50, 100 and 150 mg daily, all patients.
A short description of data set [7]: Pharmacokinetic tests in dogs. It counts as in vivo. The conditions noted are these: dog, plasma; repetitive dosing in dogs.
The nature of data set [8]: Further studies of half-life and steady state on oral dosing. The data set is classed as in vivo. The conditions noted are these: in some cases.
A short description of data set [9]: Recovery of radioactivity labeled vanoxerine in rats. It counts as in vivo.
The nature of data set [10]: Example 3: vanoxerine daily for 14 days in fourteen healthy patients. The data set is classed as in vivo, human. On the procedure: A standardized meal was served 15 minutes prior to each dosing.
The mark [11] stands for this setting: 10 patients, 1.00 = below LLOQ, read-out: High concentration group average.
The mark [12] stands for this setting: 15 patients, 1.00 = below LLOQ, read-out: Low concentration group average.

For the molecule `COc1ccccc1OCC(O)CN1CCN(CC(=O)Nc2c(C)cccc2C)CC1` (stereo not drawn) [ranolazine], the anti-AF effect entry in data set [1] (clinically relevant conditions) is recorded as “suppress atrial fibrillation”. Moreover, in data set [1], the “effects on ventricular myocardium” value is recorded as “minimal effects on ventricular myocardium”.
In general, Tmax refers to the time from dosing to the highest level. A word on the half-life: it is how long it takes for the measured level to halve. Read a low half-life as fast loss. For `Fc1ccc(C(OCCN2CCN(CCCc3ccccc3)CC2)c2ccc(F)cc2)cc1` [Vanoxerine, 1-[2-[bis(4-fluorophenyl)methoxy]ethyl]-4-(3-phenylpropyl)piperazine], the side-effects result in data set [2] (daily repetitive dose of 50 mg) was “no side-effects should be expected”; in data set [2] (higher doses) it was “some effects were seen with regard to concentration difficulties, increase systolic blood pressure, asthenia, and a feeling of drug influence”. Besides, the “heart rate and systolic blood pressure” value in data set [3] is “increased heart rate and systolic blood pressure”; in [5] (75 and 100 mg doses daily), “increased slightly in most subjects”. Moreover, the concentration at 1 h in data set [4] (setting [11]) turned out to be 115 ng/mL; in [4] (setting [12]) it was 40.1 ng/mL. For the same molecule, the concentration at 3 h is 156 ng/mL in [4] (setting [11]) and 31.4 ng/mL in [4] (setting [12]). The concentration at 4 h in data set [4] (setting [11]) is 96.1 ng/mL; in data set [4] (setting [12]), 24.4 ng/mL. Moreover, the concentration at 6 h came to 57.1 ng/mL in data set [4] (setting [11]) and 16.7 ng/mL in [4] (setting [12]). For the same molecule, the concentration at 8 h came out at 43.2 ng/mL in [4] (setting [11]) and 11.8 ng/mL in data set [4] (setting [12]). Also, the figures for the concentration at 12 h in [4] (setting [11]) and in [4] (setting [12]) were 29.3 ng/mL and 6.31 ng/mL, respectively. Also, the concentration at 24 h came out at 3.07 ng/mL in data set [4] (10 patients, read-out: High concentration group average) and 5.01 ng/mL in data set [4] (setting [12]). The concentration at 0.5 h in data set [4] (setting [11]) came to 37.7 ng/mL; in [4] (setting [12]), 17 ng/mL. The “plasma levels, highest at any time point” value in [4] (low concentration group) is about 40 ng/mL. Further, the plasma levels detectable result in data set [5] (25 mg daily) is on record as “not detectable after 8 hours”; in data set [5] (50, 75 and 100 mg doses), “detectable at 24 hours”. Further, the “PK Data (Mean +/- SD) T1/2” value in data set [5] (50 mg daily, range 4.71-110.57) is recorded as 49.39 +/− 26.18 hr (4.71-110.57); in [5] (75 mg daily, range 10.26-116.67), 52.53 +/− 37.46 (10.26-116.67) hr; in data set [5] (100 mg daily, range 5.56-125.00) it was 15.38 +/− 43.55 (5.56-125.00) hr. Moreover, the “PK Data (Mean +/- SD) CMax” value in [5] (75 mg daily) stood at 27.4 ± 15.5 ng/mL; in data set [5] (100 mg daily), 40.2 ± 26.6 ng/mL. The molecule further came in with a steady state reached in data set [5] (50, 75 and 100 mg doses daily) of at most 8 days. In addition, in data set [5] (across 50, 75 and 100 mg doses), the PK linearity entry is “linear and the dose proportional”. Further, the “half-life of the drug when daily doses are given” value in data set [5] (daily doses) is “increased half-life”. Also, in [5] (human, plasma, printed under the 50 mg line, +- 0.5 hr (0.5-2.0)), the Tmax came out at 1.27 h. For the same molecule, the steady-state levels achieved result in [6] is given as “within one week”. Also, the half-life in data set [7] is about 66 h; in data set [8] (plasma, oral), at most 125 h. In [8] (oral dosing), the “steady state achieved within” value was at most 3 days. Further, the “recovery of administered radioactivity” value in data set [9] is on record as “incomplete”. Further, the “steady state serum levels reported within” value in data set [10] (25, 75 and 125 mg daily for 14 days) was in the range of 9 to 11 days. Besides, in data set [10] (25, 75 and 125 mg daily for 14 days, standardized meal before dosing), the adverse events entry is “No significant adverse events”. Moreover, the “serum levels, dose proportionality” value in [10] (higher doses compared with lower doses) is “disproportionately and statistically greater levels at higher doses”.
